Test [1] in a line: Cytotoxicity against human CEM-TART cells after 4 days by MTT assay. The test is classed as cell-based. The settings on record: 96 h. (In general: Tetrazolium assays rely on reduction of a dye to a coloured formazan, in cell work by metabolically active cells.)
Test [2] concerns Mycobacterium tuberculosis. The test can be described thus: Antimicrobial activity against Mycobacterium tuberculosis H37Ra after 4 days by MTT assay. The test is classed as functional, organism-based. The settings on record: 96 h.

The structures appear in SMILES notation. pIC50: −log10 of the molar value.

For the molecule `CC1=C[C@H]2C[C@@H](C)CC[C@@H]2[C@@](C)(C(=O)C2=C(O)[C@@H](CO)NC2=O)[C@H]1/C=C/C=C/C[C@@H](C)O`, the negative-log IC50 (pIC50) (as a rule, −log10 of the IC50, conventionally taken in molar units) is 3.95 in test [1] and 4.25 in test [2].

For `CC1=C[C@H]2C[C@@H](C)CC[C@@H]2[C@@](C)(C(=O)C2=C(O)[C@@H](CO)N(C)C2=O)[C@H]1/C=C/C=C/C[C@@H](C)O`, the pIC50 in test [1] is 4.12; in test [2], 4.58.

On to `CC1=C[C@@H]2C[C@@H](C)CC[C@@H]2[C@@](C)(C(=O)C2=C(O)[C@@H](CO)NC2=O)[C@@H]1/C=C/C=C/C[C@@H](C)O`, for which the pIC50 in test [1] was 3.78; in test [2] it was 3.95. The molecule `CO[C@H]1/C=C/O[C@@]2(C)Oc3c(C)c(O)c4c(O)c(c(/C=N/N5CCN(C)CC5)c(O)c4c3C2=O)NC(=O)/C(C)=C\C=C\[C@H](C)[C@H](O)[C@@H](C)[C@@H](O)[C@@H](C)[C@H](OC(C)=O)[C@@H]1C` [RIFAMPIN] gave a pIC50 in test [2] of 6.82.

Source of the values: ChEMBL document CHEMBL3351947, “Isolation of pyrrolocins A-C: cis- and trans-decalin tetramic acid antibiotics from an endophytic fungal-derived pathway” (J Nat Prod, 2014).
